Literature values in patent publication US20080114046A1, “Pharmaceutical Combination of Angiotensin II Antagonists and Angiotensin I Converting Enzyme Inhibitors” (Boehringer Ingelheim International GmbH, priority 2002, published 2008).

Tests used:
[1] = normotensive patients with diabetic nephropathy; losartan added to enalapril
[2] = first clinical trials
[3] = HOPE study, treatment with ACE inhibitor ramipril

Compound	antiproteinuric effect of enalapril [1]	renoprotective effect [2]	reduction of the risk of the combined primary cardiovascular outcome [3] [%]
CCCCc1nc(Cl)c(CO)n1Cc1ccc(-c2ccccc2-c2nn[nH]n2)cc1 [losartan]	potentiated	renoprotective effect	
CCCCC1=NC2(CCCC2)C(=O)N1Cc1ccc(-c2ccccc2-c2nnn[nH]2)cc1 [irbesartan]		renoprotective effect	
CCOC(=O)[C@H](CCc1ccccc1)N[C@@H](C)C(=O)N1[C@H](C(=O)O)C[C@@H]2CCC[C@@H]21 [ramipril]			22
